Source: patent US9465025B2, “Stable neural stem cell lines” (Neuralstem, Inc., priority 1996, dated 2016)

Key:
[1] = target: T1, endogenous full-length progesterone receptor (Homo sapiens, UniProt P06401); details: Wang et al. 1994; cited from earlier work
T1 sequence (P06401 1-933): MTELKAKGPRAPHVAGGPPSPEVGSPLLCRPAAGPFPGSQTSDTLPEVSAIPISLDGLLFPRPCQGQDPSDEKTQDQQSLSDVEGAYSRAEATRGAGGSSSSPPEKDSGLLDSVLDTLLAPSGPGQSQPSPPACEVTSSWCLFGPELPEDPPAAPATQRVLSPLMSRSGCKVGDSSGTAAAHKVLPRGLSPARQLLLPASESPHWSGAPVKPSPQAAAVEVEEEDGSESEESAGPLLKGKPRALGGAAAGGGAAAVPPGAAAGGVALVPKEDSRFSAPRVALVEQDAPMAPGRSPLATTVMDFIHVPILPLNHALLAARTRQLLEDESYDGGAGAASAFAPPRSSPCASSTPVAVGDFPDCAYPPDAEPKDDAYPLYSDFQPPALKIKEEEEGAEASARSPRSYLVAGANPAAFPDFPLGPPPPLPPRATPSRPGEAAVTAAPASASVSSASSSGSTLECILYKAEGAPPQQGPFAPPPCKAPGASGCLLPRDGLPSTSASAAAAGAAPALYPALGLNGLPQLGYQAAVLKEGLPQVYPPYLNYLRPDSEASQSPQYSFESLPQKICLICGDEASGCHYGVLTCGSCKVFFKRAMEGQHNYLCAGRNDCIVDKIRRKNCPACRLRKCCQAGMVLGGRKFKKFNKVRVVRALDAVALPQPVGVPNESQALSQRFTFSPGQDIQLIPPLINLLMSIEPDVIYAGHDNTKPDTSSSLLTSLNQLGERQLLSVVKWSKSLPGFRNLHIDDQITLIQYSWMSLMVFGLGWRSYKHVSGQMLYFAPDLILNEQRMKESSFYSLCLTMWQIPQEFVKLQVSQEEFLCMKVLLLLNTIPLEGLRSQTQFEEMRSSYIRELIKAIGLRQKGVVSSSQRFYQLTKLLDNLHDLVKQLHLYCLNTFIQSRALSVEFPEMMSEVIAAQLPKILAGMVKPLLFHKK

[2] = tested on: MycER-expressing CNS stem cells; test: Growth of MycER-expressing human CNS stem cells in different mitogens; type: cell-based
Protocol: The same human CNS stem cell preparation was also subjected to MycER-retrovirus infection and grown in bFGF alone or in bFGF and EGF. […] As with the unmodified parent cells, the MycER cells also retained a 60 hour doubling time in bFGF alone. […] In the absence of MycER expression, the same three conditions yielded a similar pattern of growth, but with less stability.

rat CNS stem cells = test: Doubling time of rat CNS stem cells in N2 medium with bFGF; type: cell-based; details: bFGF as sole mitogen
Protocol: (§1) The doubling time for human CNS stem cells in N2 medium with bFGF as the sole mitogen is approximately 60 hours which is markedly slower than 24 hours for rat CNS stem cells under the identical culture conditions. This may be due to a species difference in certain cell-autonomous properties of the cells such as a difference in DNA replication rate or in other mitotic phases, G1 or G2, of the cell cycle. We investigated other factors to accelerate the mitotic rate of human CNS stem cells.

human CNS stem cells = test: Mitotic rate (24-hour BrdU incorporation) and doubling time of human CNS stem cells with growth factors; type: cell-based; details: N2 medium, factor supplied daily
Protocol: as §1
Many purified recombinant human growth factors were tested for the ability to enhance the mitogenic activity of bFGF. The mitotic rate of human CNS stem cells was assessed by measuring the proportion of the cells which have incorporated the mitotic label, bromodeoxyuridine (BrdU), during a 24-hour period. Each growth factor was supplied daily to the culture in addition to bFGF. Only the combination of bFGF+EGF and bFGF+TGFα (transforming growth factor-alpha) accelerated beyond the bFGF-induced mitotic rate of the human CNS stem cells. In both conditions, the doubling time of the cells […] 1.5 times to 40 hours over bFGF alone. Combination of bFGF and fetal bovine serum at 1% or at 10% also accelerated the BrdU-incorporation rate of bFGF-induced mitotic rate of CNS stem cells to a similar rate. • 2. Resistance of CNS Stem Cells Against Spontaneous Differentiation

Row | Compound | activation of full-length receptor [1] | doubling time [2] | doubling time (rat CNS stem cells) | doubling time (human CNS stem cells)
1 | CC#C[C@]1(O)CC[C@H]2[C@@H]3CCC4=CC(=O)CCC4=C3[C@@H](c3ccc(N(C)C)cc3)C[C@@]21C [RU38486] | does not activate | – | – | –
2 | bFGF: basic fibroblast growth factor, mitogen for CNS stem cells | – | 60 h | 24 h | approximately 60 hours
